# Measured values reported in US8633204B2 (Pfizer Inc., priority 2006, dated 2014).
# Entries after “also recorded” stand apart in the source; their conditions may differ.
# What was measured:
# [1] = tested on: U87MG tumor model; experiment: Mouse xenograft efficacy study, U87MG; type: in vivo; conditions: for Growth Inhibition (%): U87 MG glioma xenograft
# Description: (§1) The in vivo efficacy of 2-amino-8-(trans-4-hydroxycyclohexyl)-6-(6-methoxypyridin-3-yl)-4-methylpyrido[2,3-d]pyrimidin-7(8H)-one (Compound 152) disclosed in Example 53 was examined in s.c. xenograft model. Human tumor cell lines PC3 (PTEN deletion)), U87MG (PTEN deletion) and SKOV3 (PI3Kα […]) were chosen for in vivo efficacy studies due to their different genetic background and relatively high levels of phospho AKT S473 signal. Cells were implanted in the hind flank of athymic mice and tumors grew in size to 100-200 mm^3 before daily oral treatment with Compound 152 was initiated. […] For all models tested 1 mg/kg was an efficacious dose.
# (§2) Animal Care: Female and male athymic mice (6-8 weeks old) weighing ˜22 g were obtained from Charles River Laboratory. Animal were housed on a 12 h light/dark cycle in the Pfizer vivarium and all procedures are conducted in accordance with the Pfizer Institutional Animal Care and Use Committee (IACUC). Animals are provided free access to rodent chow and water ad libitum and maintained under clean room conditions. Prior to study start animals acclimate for at least 48 h.
# (§3) Cell lines: All cell lines were cultured at 37° C. in humidified 5% CO2 incubator. U87 MG glioblastoma tumor cell line was obtained from American Type Culture Collection (ATCC) and cultured with DMEM supplemented with 15% FBS and 2 mM glutamine. PC3 prostate cancer cell line were obtained from National Cancer Institute and cultured in RPMI media supplemented with 10% FBS and 2 mM glutamine. SKOV3 ovarian cancer cells were obtained from ATCC and passaged multiple times through mice, and cultured in McCoy's 5A media supplemented with 10% FBS and 2 mM glutamine. All cell lines were tested by University of Missouri Research Animal Diagnostic Laboratory for known species of murine viruses and mycoplasma contamination.
# (§4) Mouse Xenograft Models: U87MG (glioblastoma), PC3 (prostate cancer) and SKOV3 (ovarian cancer) cell lines in culture were harvested by trypsinisation. Briefly, 2.5−4×10^6 tumor cells were suspended in the medium used to culture each cell line without serum and implanted sub-cutaneously (s.c) into the hind flank region of mice on day 0. Daily treatment with Compound 152, formulated in 10% ethanol, 40% PEG and 50% sodium citrate buffer or vehicle alone commenced 10-14 d after implantation when average tumors were 100-200 mm^3 in size. Tumors were measured twice weekly and tumor volume was calculated as a product of (length×width^2)/2. Studies were typically terminated when the tumor in the vehicle treated animals reached a size of >1500 mm3 or when judged to adversely affect the well being of the animal. […] Where applicable, percent tumor regression for each group was calculated as 100×(tumor volumeinitial−tumor volumefinal)/(tumor volumeinitial). A cohort of 12 animals was used for each dose group for efficacy studies. A representative cohort of animals were sacrificed at the times indicated, tumors resected, and a blood sample taken from the cardiac left ventricle and immediately placed in a vial primed with heparin sulfate. Typically one half of the tumor was fixed in 10% neutral buffered formalin, paraffin embedded, and sectioned for immunohistochemistry. The other half was frozen in liquid nitrogen and later processed to generate cell lysates for target modulation studies.
# [2] = tested on: PC3 tumor model; experiment: Mouse xenograft efficacy study, PC3; type: in vivo
# Description: as §1, §2, §3, §4
# [3] = tested on: phosphorylation of AKT on S473 in SKOV3 tumors; experiment: In vivo target modulation study, SKOV3 tumors; set-up: species or system mouse
# Description: (§5) In vivo target modulation studies to determine the effect of Compound 152 treatment on the phosphorylation of AKT on S473 by ELISA and S6 on S235/S236 by IHC were performed. Resected tumors were frozen on dry ice and pulverized using the FAST PREP instrument (Qbiogene). Briefly, frozen tumors were placed in Fast Prep matrix tubes, cold lysis buffer [20 mM HEPES (pH 7.5), 150 mM NaCl, 1.0 mM sodium EDTA, 1% Triton X-100, 2.5 mM sodium pyrophosphate, 1 mM sodium orthovanadate, 1 μg/ml leupeptin, and 1 mM PMSF] was added and samples were centrifuged for 5 sec, mixed and process repeated two more times. Samples were centrifuged in a cold refrigerated Eppendorf centrifuge at 14,000 RPM for 20 min. Supernatant was collected and total and phosphoAKT (S473) protein levels determined by ELISA. The extent of phosphorylation in tumors resected from treated animals was compared with that in tumors resected from vehicle-treated animals at the same time point. Plasma samples, obtained by centrifuging individual blood samples at 3000×g for 5 min at 4° C. in an Eppendorf 5417R centrifuge, were stored at −80° C. until they could be analyzed for drug concentration. Briefly, plasma samples (50 μl) or Compound 152 standards in mouse plasma were mixed with acetonitrile […]) and injected onto a LC/MS/MS system where separation occurred on a C-18 SB phenyl (5 μM, 2.1×50 mm, Agilent) reverse-phase high-performance liquid chromatography column. The amount of inhibitor and the internal standard (0.5 μM buspirone) in each mouse plasma sample was quantified based on standard curves generated using known amounts of compound. […] Time course and dose response of in vivo target modulation and plasma inhibitor concentrations were determined post last dose at the end of the efficacy study described above and data are summarized in Table 4.
# [4] = tested on: SKOV3 tumor model; experiment: Mouse xenograft efficacy study, SKOV3; type: in vivo; conditions: for Growth Inhibition (%): SKOV3 ovarian xenograft
# Description: as §1, §2, §3, §4
# [5] = tested on: phosphorylation of AKT on S473 in PC3 tumors; experiment: In vivo target modulation study, PC3 tumors; set-up: species or system mouse
# Description: as §5
# [6] = U87MG tumor model, daily oral treatment
# [7] = PC3 tumor model, daily oral treatment
# [8] = SKOV3 tumor model, daily oral treatment
compound,measurement,setting,value
"COc1ccc(-c2cc3c(C)nc(N)nc3n([C@H]3CC[C@H](O)CC3)c2=O)cn1 [Compound 152, 2-amino-8-(trans-4-hydroxycyclohexyl)-6-(6-methoxypyridin-3-yl)-4-methylpyrido[2,3-d]pyrimidin-7(8H)-one]",Growth Inhibition (%),[1]; 0.1 mg/kg/day oral,18%
same,Growth Inhibition (%),[1]; 0.3 mg/kg/day oral,56%
same,Growth Inhibition (%),[1]; 1.0 mg/kg/day oral,76%
same,anti-tumor efficacy,[1]; [6],dose-dependent anti-tumor efficacy; also recorded: growth inhibition
same,efficacious dose,[1]; [6],1 mg/kg
same,Growth Inhibition (%),"[2]; PC3 prostate xenograft, 0.25 mg/kg/day oral",45%
same,Growth Inhibition (%),"[2]; PC3 prostate xenograft, 0.5 mg/kg/day oral",62%
same,Growth Inhibition (%),"[2]; PC3 prostate xenograft, 1 mg/kg/day oral",89%
same,Regression (%),"[2]; PC3 prostate xenograft, 2 mg/kg/day oral",19%
same,anti-tumor efficacy,[2]; [7],dose-dependent anti-tumor efficacy; also recorded: regression
same,efficacious dose,[2]; [7],1 mg/kg
same,p-Akt/Akt(%),"[3]; SKOV3, 0.5 mg/kg, 3 h post last dose",30 ± 3%
same,p-Akt/Akt(%),"[3]; SKOV3, 0.5 mg/kg, 7 h post last dose",55 ± 4%
same,p-Akt/Akt(%),"[3]; SKOV3, 0.5 mg/kg, 24 h post last dose",147 ± 21%
same,p-Akt/Akt(%),"[3]; SKOV3, 1 mg/kg, 3 h post last dose",27 ± 6%
same,p-Akt/Akt(%),"[3]; SKOV3, 1 mg/kg, 7 h post last dose",48 ± 17%
same,p-Akt/Akt(%),"[3]; SKOV3, 1 mg/kg, 24 h post last dose",124 ± 10%
same,p-Akt/Akt(%),"[3]; SKOV3, 2 mg/kg, 3 h post last dose",23 ± 5%
same,p-Akt/Akt(%),"[3]; SKOV3, 2 mg/kg, 7 h post last dose",30 ± 13%
same,p-Akt/Akt(%),"[3]; SKOV3, 2 mg/kg, 24 h post last dose",126 ± 20%
same,inhibition of pAKT at S473,[3]; SKOV3 tumors in vivo,dose dependent inhibition
same,Growth Inhibition (%),[4]; 0.5 mg/kg/day oral,46%
same,Growth Inhibition (%),[4]; 1 mg/kg/day oral,66%
same,Growth Inhibition (%),[4]; 2 mg/kg/day oral,82%
same,anti-tumor efficacy,[4]; [8],dose-dependent anti-tumor efficacy; also recorded: growth inhibition
same,efficacious dose,[4]; [8],1 mg/kg
same,p-Akt/Akt(%),"[5]; PC3, 0.25 mg/kg, 3 h post last dose",42 ± 14%
same,p-Akt/Akt(%),"[5]; PC3, 0.25 mg/kg, 7 h post last dose",82 ± 18%
same,p-Akt/Akt(%),"[5]; PC3, 0.25 mg/kg, 24 h post last dose",137 ± 23%
same,p-Akt/Akt(%),"[5]; PC3, 0.5 mg/kg, 3 h post last dose",32 ± 4%
same,p-Akt/Akt(%),"[5]; PC3, 0.5 mg/kg, 7 h post last dose",38 ± 5%
same,p-Akt/Akt(%),"[5]; PC3, 0.5 mg/kg, 24 h post last dose",107 ± 6%
same,p-Akt/Akt(%),"[5]; PC3, 1 mg/kg, 3 h post last dose",23 ± 10%
same,p-Akt/Akt(%),"[5]; PC3, 1 mg/kg, 7 h post last dose",27 ± 9%
same,p-Akt/Akt(%),"[5]; PC3, 1 mg/kg, 24 h post last dose",113 ± 15%
same,p-Akt/Akt(%),"[5]; PC3, 2 mg/kg, 3 h post last dose",21 ± 5%
same,p-Akt/Akt(%),"[5]; PC3, 2 mg/kg, 7 h post last dose",17 ± 7%
same,p-Akt/Akt(%),"[5]; PC3, 2 mg/kg, 24 h post last dose",78 ± 9%
same,inhibition of pAKT at S473,[5]; PC3 tumors in vivo,dose dependent inhibition
